The record followed here is patent US20040220403A1, “1-(2-Methoxybenzyl)-3-benzhydrylpiperazines as tachykinin anatgonists” (priority 2001, published 2004).

For orientation: melting point means the temperature of the solid-liquid transition.

The first data set concerns Emesis in the Dog. In words: Emesis in the Dog (apomorphine-induced retching and vomiting). Format: in vivo. To be noted: adult female dogs; test compound i.v. at the dose of 1.0 mg/kg; 5 min later subcutaneous apomorphine (0.1 mg/0.5 ml/kg); observed for the next 60 min. The method, then:
Individually housed adult female dogs (8 to 15 kg) were given an i.v. injection of a solution containing a test compound. 5 Min later the emetic responses (retching and vomiting) were induced by administration of subcutaneous apomorphine (0.1 mg/0.5 ml/kg) and observed for the next 60 min. The timing and number of retches and vomits observed were recorded for each animal. An individual animal was tested with at least 10 days between experiments.
For `COc1ccc(-n2nnnc2C(F)(F)F)c(OC)c1CN1C[C@@H]2CN(C(=O)N(C)C)CCN2[C@H](C(c2ccccc2)c2ccccc2)C1.Cl.Cl` [52-(5), (6R,9aR)-6-Benzhydryl-8-[2,6-dimethoxy-3-[5-(trifluoromethyl)-1H-tetrazol-1-yl]benzyl]-N,N-dimethyloctahydro-2H-pyrazino[1,2-a]pyrazine-2-carboxamide dihydrochloride], the “inhibition rate of emesis in the dog” value is on record as 100%.
Take `COc1ccc(-n2nnnc2C(F)(F)F)c(OC)c1CN1C[C@@H]2C[C@@H](NC(C)=O)CN2[C@H](C(c2ccccc2)c2ccccc2)C1.Cl.Cl` [52-(14), N-[(4R, 7R, 8aS)-4-Benzhydryl-2-[2,6-dimethoxy-3-[5-(trifluoromethyl)-1H-tetrazol-1-yl]benzyl]octahydropyrrolo-[1,2-a]pyrazin-7-yl]acetamide dihydrochloride]: the “inhibition rate of emesis in the dog” value was determined as 100%.
On the same count and under the same terms, the value for `COc1ccc(-n2nnnc2C(F)(F)F)c(OC)c1CN1CCN(Cc2cnn(C)c2)[C@H](C(c2ccccc2)c2ccccc2)C1.Cl.Cl` [57-(1), (2R)-2-Benzhydryl-4-[2,6-dimethoxy-3-[5-(trifluoromethyl)-1H-tetrazol-1-yl]benzyl]-1-[(1-methyl-1H-pyrazol-4-yl)methyl]piperazine dihydrochloride] was 100%.

Test system in the next data set: not given
Test: not given
Conditions: not given
Regarding `COc1ccc(-n2nnnc2C(F)(F)F)cc1CN1C[C@@H]2CN(C(=O)COC(C)=O)CCN2[C@H](C(c2ccccc2)c2ccccc2)C1.Cl.Cl`, the melting point was in the range of 138 to 153 °C.
Same read-out and setting: with `COc1ccc(-n2nnnc2C(F)(F)F)cc1CN1C[C@@H]2CN(C(=O)C(C)(C)OC(C)=O)CCN2[C@H](C(c2ccccc2)c2ccccc2)C1.Cl.Cl` the figure was 143 to 148 °C; with `COc1ccc(-n2nnnc2C(F)(F)F)cc1CN1C[C@@H]2CN(C(=O)C3CCCCC3)CCN2[C@H](C(c2ccccc2)c2ccccc2)C1.Cl.Cl`, 169 to 174.5 °C.
Same read-out and setting: with `COc1ccc(-n2nnnc2CC(F)(F)F)cc1CN1C[C@@H]2CN(C(=O)c3cccnc3)CCN2[C@H](C(c2ccccc2)c2ccccc2)C1.Cl.Cl.Cl` the figure was 197 to 200 °C; with `COc1ccc(-n2nnnc2C(F)(F)F)cc1CN1C[C@@H]2CN(C(=O)CO)CCN2[C@H](C(c2ccccc2)c2ccccc2)C1.Cl.Cl`, 140 to 159 °C.
Take `COc1ccc(-n2nnnc2C(F)(F)F)cc1CN1C[C@@H]2CN(C(=O)CCO)CCN2[C@H](C(c2ccccc2)c2ccccc2)C1.Cl.Cl`: the melting point is 147 to 154 °C.
For the compound `COc1ccc(-n2nnnc2C(F)(F)F)cc1CN1C[C@@H]2CN(C(=O)[C@H](C)O)CCN2[C@H](C(c2ccccc2)c2ccccc2)C1.Cl.Cl`, the melting point was 150 to 158 °C.
Still for that read-out and setting: with `COc1ccc(-n2nnnc2C(F)(F)F)cc1CN1C[C@@H]2CN(C(=O)C3CCCC3)CCN2[C@H](C(c2ccccc2)c2ccccc2)C1.Cl.Cl` the figure was 170 to 178 °C (dec.); with `COCCC(=O)N1CCN2[C@H](CN(Cc3cc(-n4nnnc4C(F)(F)F)ccc3OC)C[C@H]2C(c2ccccc2)c2ccccc2)C1.Cl.Cl`, 132 to 135 °C; with `COc1ccc(-n2nnnc2C(F)(F)F)cc1CN1C[C@@H]2CN(C(=O)CC(F)(F)F)CCN2[C@H](C(c2ccccc2)c2ccccc2)C1.Cl.Cl`, 155 to 160 °C.
Compound `COc1ccc(-n2nnnc2C(F)(F)F)cc1CN1C[C@@H]2CN(C(=O)N(C)C)CCN2[C@H](C(c2ccccc2)c2ccccc2)C1.Cl.Cl` came in with a melting point of 158 to 164 °C.
On to `CNC(=O)N1CCN2[C@H](CN(Cc3cc(-n4nnnc4C(F)(F)F)ccc3OC)C[C@H]2C(c2ccccc2)c2ccccc2)C1.Cl.Cl`, for which the melting point was 160 to 170 °C.
For the compound `COc1ccc(-n2nnnc2C(F)(F)F)cc1CN1C[C@@H]2CN(C(N)=O)CCN2[C@H](C(c2ccccc2)c2ccccc2)C1.Cl.Cl`, the melting point fell in the range of 165 to 190 °C.
In turn, `COc1ccc(-n2nnnc2C(F)(F)F)cc1CN1C[C@@H]2CN(C3CCC3)CCN2[C@H](C(c2ccccc2)c2ccccc2)C1.Cl.Cl.Cl` gave a melting point of 184 to 187 °C.
Compound `COc1ccc(-n2nnnc2C(F)(F)F)cc1CN1C[C@@H]2CN(c3cccnc3)CCN2[C@H](C(c2ccccc2)c2ccccc2)C1.Cl.Cl.Cl` had a melting point of 175 to 178 °C.
Take `COc1ccc(-n2nnnc2C(F)(F)F)cc1CN1C[C@@H]2CN(S(N)(=O)=O)CCN2[C@H](C(c2ccccc2)c2ccccc2)C1.Cl.Cl`: the melting point was 174 to 176 °C.
`COc1ccc(-n2nnnc2C(F)(F)F)cc1CN1C[C@@H]2CN(CC(C)=O)CCN2[C@H](C(c2ccccc2)c2ccccc2)C1.Cl.Cl.Cl` gave a melting point of 175 to 179 °C.
`COc1ccc(-n2nnnc2C(F)(F)F)cc1CN1C[C@@H]2CN(C(C=O)C(=O)N(C)C)CCN2[C@H](C(c2ccccc2)c2ccccc2)C1.Cl.Cl` (stereo partly shown) yielded a melting point of 155 to 168 °C.
As to `COc1ccc(-n2nnnc2C(F)(F)F)cc1CN1C[C@@H]2CN(S(=O)(=O)N(C)C)CCN2[C@H](C(c2ccccc2)c2ccccc2)C1.Cl.Cl`, the melting point was 148 to 152 °C.
For the compound `COc1ccc(-n2nnnc2C(F)(F)F)cc1CN1C[C@@H]2CN(S(=O)(=O)CS(C)(=O)=O)CCN2[C@H](C(c2ccccc2)c2ccccc2)C1.Cl.Cl`, the melting point was in the range of 162 to 168 °C.
`COc1ccc(-n2nnnc2C(F)(F)F)c(OC)c1CN1C[C@@H]2CN(C(=O)CO)CCN2[C@H](C(c2ccccc2)c2ccccc2)C1.Cl.Cl` gave a melting point of 128 to 132 °C.
The same measure, in the same setting: with `COc1ccc(-n2nnnc2C(F)(F)F)cc1CN1C[C@@H]2CC(NC(=O)CO)CN2[C@H](C(c2ccccc2)c2ccccc2)C1.Cl.Cl` (stereo partly shown) the figure was 155 to 159 °C.
